Experimental data published in article PMC7177833, “2-Aminopyridine Analogs Inhibit Both Enzymes of the Glyoxylate Shunt in Pseudomonas aeruginosa” (International Journal of Molecular Sciences, 2020).
pIC50: −log10 of the molar value. Like-named read-outs stand apart in the source and are kept apart here.

Legend:
[1] = biological target: T1, CYP2C19 (Homo sapiens, UniProt P33261); experiment: CYP450 inhibition in HLM, mephenytoin probe; format: in vitro ADME
T1 construct: pooled human liver microsomes; tissue BioIVT; host or cells: pooled human liver microsomes
Method: The CYP450 inhibition was determined by measuring the reaction products of known CYP450 substrates (probes). […] These probe solutions were dispensed (195 µL) into clear 96-well plates with low evaporation lids (Corning, Turin, Italy) and the plates were prewarmed to 37 °C in a thermomixer (Hamilton, Agrate Brianza, Italy). Next, 5 µL of the test compound or appropriate positive control (Table S4) were added to the wells and the plates were incubated for a further 5 min. Following this, the reactions were started by adding NADPH regenerating solution (50 µL, see previous Section 4.7) to each well. CYP450 mixtures containing phenacetin, rosiglitazone, mephenytoin, atorvastatin, and nifedipine probes were incubated for 10 min at 37 °C, whereas those with midazolam and diclofenac were incubated for 5 min at 37 °C. […]
Probe products were analyzed on an API4000 Qtrap mass spectrometer (Applied Biosystems/MDS SCIEX, Monza, Italy) coupled with an Acquity UPLC system (Waters, Milan, Italy) and a CTC-PAL auto-injector (CTC Analytics AG, Zwingen, Switzerland). […] The analytes were quantified in multiple reaction-monitoring mode. Data were processed, and the percentage control activity was calculated based on a comparison between the ratio of the sample peak area and the peak area.

[2] = tested on: P. aeruginosa; parameters: method as in Fahnoe et al. [13]; conditions: ref Fahnoe et al. [13], cited from earlier work

T1 sequence (P33261 whole entry): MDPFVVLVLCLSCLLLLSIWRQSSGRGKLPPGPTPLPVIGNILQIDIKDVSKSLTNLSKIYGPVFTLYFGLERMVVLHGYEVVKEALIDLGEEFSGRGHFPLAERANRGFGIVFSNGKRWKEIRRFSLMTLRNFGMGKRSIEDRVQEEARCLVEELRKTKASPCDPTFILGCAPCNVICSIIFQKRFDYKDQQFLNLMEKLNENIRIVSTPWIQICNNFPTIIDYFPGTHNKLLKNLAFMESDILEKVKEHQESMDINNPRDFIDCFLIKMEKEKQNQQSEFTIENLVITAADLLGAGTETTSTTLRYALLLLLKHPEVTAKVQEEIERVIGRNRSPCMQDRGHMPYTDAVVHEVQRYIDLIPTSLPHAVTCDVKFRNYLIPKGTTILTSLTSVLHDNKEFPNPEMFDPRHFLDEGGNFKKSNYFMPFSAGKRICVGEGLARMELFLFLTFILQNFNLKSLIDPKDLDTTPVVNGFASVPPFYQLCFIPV

In the case of `CC(C)(C)OC(=O)/N=C(\NC(=O)OC(C)(C)C)Nc1cc(Cl)ccn1` [SB002], the “IC50 CYP450 2C19” value [1] is given as “some evidence of interacting with the turnover of mephenytoin”, the pIC50 ([1]; read-out: IC50 CYP450 2C19) is given as 3.90 and the MIC ([2]; conversion of 8 μg/mL) is given as 21.6 µM. The MIC [2] was 8 µg/mL.
